Consider 26 molecules from patent US20110040088A1, “FUSED HETEROCYCLIC COMPOUNDS” (priority 2003, published 2011).

The structures appear in SMILES notation. Like-named read-outs stand apart in the source and are kept apart here.

Experiment [1] addresses T1, human recombinant 5-HT2C receptor (Homo sapiens, UniProt P28335).
T1 sequence (P28335 33-458): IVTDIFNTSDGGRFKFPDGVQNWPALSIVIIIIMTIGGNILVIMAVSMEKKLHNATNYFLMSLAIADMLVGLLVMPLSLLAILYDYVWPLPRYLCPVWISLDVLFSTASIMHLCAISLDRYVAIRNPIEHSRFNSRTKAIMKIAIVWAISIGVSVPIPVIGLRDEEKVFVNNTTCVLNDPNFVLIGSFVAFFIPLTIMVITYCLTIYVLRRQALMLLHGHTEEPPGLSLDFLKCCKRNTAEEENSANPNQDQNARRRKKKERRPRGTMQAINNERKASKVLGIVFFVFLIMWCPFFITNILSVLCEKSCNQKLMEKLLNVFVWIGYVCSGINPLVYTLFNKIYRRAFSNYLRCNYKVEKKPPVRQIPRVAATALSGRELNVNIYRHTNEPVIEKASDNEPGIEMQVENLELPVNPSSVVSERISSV
Put plainly: 5-HT2C receptor radioligand binding ([3H]mesulergine, CHO membranes).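 Note: competitive displacement of the tritiated ligand, using membranes from CHO cells stably transfected with the human receptor.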
Experimental: (§1) Affinity for 5HT2 Receptor Binding Sites
(§2) Receptor binding was performed using the human recombinant 5-HT2A (GB: X57830), 5-HT2B (GB: Z36748) and 5-HT2c (GB: M81778) receptors. The affinity of the compounds for the 3 different human 5-HT2 receptor subtypes was evaluated by competitive radioligand binding assays using [^3H]ketanserin (h5-HT2A) or [^3H]mesulergine (h5-HT2B and h5-HT2c). The assays were performed on membranes prepared from NIH3T3 stably transfected with h5-HT2A or CHO stably transfected with h5-HT2B and h5-HT2C.

Experiment [2] addresses T2, rat 5-HT7a receptor (Rattus norvegicus, UniProt P32305).
T2 construct: expressed in transfected cells
Put plainly: 5-HT7 receptor radioligand binding ([3H]5-CT, membranes of transfected HEK-293 cells). To be noted: rat 5-HT7a in HEK-293 membranes, 1 nM [3H]5-CT.

In experiment [3] the target is 5-HT2A receptor (UniProt P28223). Put plainly: 5-HT2A receptor radioligand binding ([3H]ketanserin).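 Note: competitive displacement binding on membranes, either from rat cerebral cortex or from NIH3T3 cells stably expressing human 5-HT2A.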 To be noted: read-out: Ki 5-HT2A, table does not say whether rat cortex or human recombinant (NIH3T3) receptor.
Experimental: The affinity of the compounds for the rat 5-HT2A receptor was evaluated by competitive radioligand binding assay using [^3H]ketanserine as the radioligand. The assay was performed on membranes from rat cortex as previously described (Schotte, A. et al., Psychopharmacology (1996) 124: 57-73). Briefly, brain tissue (rat cortex) was homogenized in 20 volumes per wet weight tissue of Tris-HCl buffer (50 mM, pH 7.4). The total membrane fraction was collected by centrifugation and washed by subsequent centrifugation runs (25 min at 25,000 g at 4° C.). Membranes were re-suspended in Tris-HCl buffer (50 mM, pH 7.4) containing 1 nM [^3H]ketanserin. Non-specific binding was estimated in the presence of 10 μM risperidone.
Experiment [4] deals with human recombinant 5-HT2B receptor (Homo sapiens, UniProt P41595). Put plainly: 5-HT2B receptor radioligand binding ([3H]mesulergine, CHO membranes).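 Note: competitive displacement binding on membranes of CHO cells stably expressing the receptor.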
Experimental: as §1, §2
Where [5] appears, read: read-out: Ki 5-HT2C, h5-HT2C in CHO membranes, [3H]mesulergine.

T2 sequence (P32305 whole entry): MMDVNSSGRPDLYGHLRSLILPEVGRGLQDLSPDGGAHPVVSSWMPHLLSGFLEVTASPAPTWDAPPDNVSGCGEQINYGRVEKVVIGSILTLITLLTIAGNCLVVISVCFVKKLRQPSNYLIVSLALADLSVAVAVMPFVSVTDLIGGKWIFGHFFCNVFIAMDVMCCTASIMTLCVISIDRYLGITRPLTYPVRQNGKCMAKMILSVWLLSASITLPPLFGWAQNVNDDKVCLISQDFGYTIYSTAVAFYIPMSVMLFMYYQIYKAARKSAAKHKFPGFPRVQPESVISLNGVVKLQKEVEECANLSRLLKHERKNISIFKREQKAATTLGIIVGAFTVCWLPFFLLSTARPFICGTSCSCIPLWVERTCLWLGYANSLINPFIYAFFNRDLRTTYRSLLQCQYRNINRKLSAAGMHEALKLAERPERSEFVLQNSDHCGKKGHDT
Sequence of human recombinant 5-HT2B receptor (P41595 whole entry): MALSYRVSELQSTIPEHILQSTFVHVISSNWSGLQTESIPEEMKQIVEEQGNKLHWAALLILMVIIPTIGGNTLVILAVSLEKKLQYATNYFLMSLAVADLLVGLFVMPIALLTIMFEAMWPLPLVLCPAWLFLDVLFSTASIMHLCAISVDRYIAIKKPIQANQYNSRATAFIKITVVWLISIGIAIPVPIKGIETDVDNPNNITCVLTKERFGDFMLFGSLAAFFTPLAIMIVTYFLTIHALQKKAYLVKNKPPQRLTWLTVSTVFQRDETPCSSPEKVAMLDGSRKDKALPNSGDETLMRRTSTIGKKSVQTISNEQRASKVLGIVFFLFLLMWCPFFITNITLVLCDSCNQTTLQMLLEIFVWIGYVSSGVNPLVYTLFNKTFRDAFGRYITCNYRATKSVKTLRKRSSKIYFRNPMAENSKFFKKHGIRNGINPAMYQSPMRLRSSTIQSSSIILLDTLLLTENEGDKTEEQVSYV

One may read the Ki as the equilibrium dissociation constant of an inhibitor or competing ligand from its target. As for `Cc1ccc(-c2c3c(nn2C2CCC2)CCNCC3)cc1` [Example 278, 2-Cyclobutyl-3-p-tolyl-2,4,5,6,7,8-hexahydro-1,2,6-triaza-azulene], the Ki was 0.01 µM in experiment [1], 0.035 µM in experiment [2], 0.0001 µM in experiment [3] and 0.0002 µM in experiment [4].
As to `c1cc(-c2c3c(nn2C2CCCC2)CCNCC3)cs1` [Example 192, 2-Cyclopentyl-3-thiophen-3-yl-2,4,5,6,7,8-hexahydro-1,2,6-triaza-azulene], the Ki stood at 0.015 µM in experiment [1], 0.02 µM in experiment [2], 0.0025 µM in experiment [3] and 0.0009 µM in experiment [4].
Take `CCC(C)n1nc2c(c1-c1ccc(C)cc1)CCNCC2` (centres unmarked) [Example 300, 2-sec-Butyl-3-p-tolyl-2,4,5,6,7,8-hexahydro-1,2,6-triaza-azulene]: the Ki in experiment [1] stood at 0.012 µM; in experiment [2], 0.01 µM; in experiment [3], 0.0003 µM; in experiment [4], 0.0008 µM.
Turning to `FC(F)(F)c1ccc(-c2c3c(nn2C2CCC2)CCNCC3)cc1` [Example 279, 2-Cyclobutyl-3-(4-trifluoromethyl-phenyl)-2,4,5,6,7,8-hexahydro-1,2,6-triaza-azulene], the Ki in experiment [1] stood at 0.045 µM; in experiment [2], 0.08 µM; in experiment [3], 0.0008 µM; in experiment [4], 0.001 µM.
On to `CC1Cc2nn(C(C)C)c(-c3ccccc3)c2CCN1` (centres unmarked) [Example 311, 2-Isopropyl-7-methyl-3-phenyl-2,4,5,6,7,8-hexahydro-1,2,6-triaza-azulene], for which the Ki stood at 3 µM in experiment [1], 0.08 µM in experiment [2], 0.14 µM in experiment [3] and 0.1 µM in experiment [4].
In the case of `CCC(CC)n1nc2c(c1-c1cccc(F)c1)CCNCC2` [Example 183, 2-(1-Ethyl-propyl)-3-(3-fluoro-phenyl)-2,4,5,6,7,8-hexahydro-1,2,6-triaza-azulene], the Ki in experiment [1] was 0.07 µM; in experiment [2] it was 0.24 µM; in experiment [3], 0.007 µM; in experiment [4] it was 0.054 µM.
Consider `Cc1ccc(-c2c3c(nn2C(C)C)CC(C)NCC3)cc1` (centres unmarked) [Example 315, 2-Isopropyl-7-methyl-3-p-tolyl-2,4,5,6,7,8-hexahydro-1,2,6-triaza-azulene], for which the Ki in experiment [1] stood at 0.3 µM; in experiment [2] it was 0.012 µM; in experiment [3] it was 0.009 µM; in experiment [4], 0.003 µM.
For the molecule `CC1Cc2c(nn(C3CCCC3)c2-c2ccc(F)cc2)CCN1` (centres unmarked) [Example 309, 2-Cyclopentyl-3-(4-fluoro-phenyl)-5-methyl-2,4,5,6,7,8-hexahydro-1,2,6-triaza-azulene], the Ki was found to be 0.13 µM in experiment [1], 0.13 µM in experiment [2], 0.03 µM in experiment [3] and 0.015 µM in experiment [4].
In the case of `Cc1ccc(-c2c3c(nn2C2CCCC2)CC(C)NCC3)cc1` (centres unmarked) [Example 310, 2-Cyclopentyl-7-methyl-3-p-tolyl-2,4,5,6,7,8-hexahydro-1,2,6-triaza-azulene], the Ki in experiment [1] stood at 0.03 µM; in experiment [2] it was 0.475 µM; in experiment [3], 0.0002 µM; in experiment [4], 0.0004 µM.
As for `CCc1ccc(-c2c3c(nn2C(C)C)CCNCC3)cc1` [Example 210, 3-(4-Ethyl-phenyl)-2-isopropyl-2,4,5,6,7,8-hexahydro-1,2,6-triaza-azulene], the Ki in experiment [1] worked out at 0.02 µM; in experiment [2], 0.007 µM; in experiment [3] it was 0.002 µM; in experiment [4], 0.00075 µM.
The corresponding values for `CC1Cc2nn(C3CCCC3)c(-c3ccc(F)cc3)c2CCN1` (centres unmarked) [Example 308, 2-Cyclopentyl-3-(4-fluoro-phenyl)-7-methyl-2,4,5,6,7,8-hexahydro-1,2,6-triaza-azulene] are 0.162 µM, 5.2 µM, 0.002 µM and 0.003 µM.
For `Fc1cc(-c2c3c(nn2C2CCCC2)CCNCC3)ccc1Cl` [Example 241, 3-(4-Chloro-3-fluoro-phenyl)-2-cyclopentyl-2,4,5,6,7,8-hexahydro-1,2,6-triaza-azulene], the Ki in experiment [1] was 0.038 µM; in experiment [2], 0.31 µM; in experiment [3], 0.009 µM; in experiment [4], 0.0095 µM.
As to `c1ccc(-c2c3c(nn2C2CCC2)CCNCC3)cc1` [Example 276, 2-Cyclobutyl-3-phenyl-2,4,5,6,7,8-hexahydro-1,2,6-triaza-azulene], the Ki worked out at 0.09 µM in experiment [1] (setting [5]), 0.09 µM in experiment [2], 0.003 µM in experiment [3] and 0.0025 µM in experiment [4].
Take `Cc1ccc(-c2c3c(nn2C2CC2)CCNCC3)cc1` [Example 284, 2-Cyclopropyl-3-p-tolyl-2,4,5,6,7,8-hexahydro-1,2,6-triaza-azulene]: the Ki was found to be 0.06 µM in experiment [1], 0.01 µM in experiment [2], 0.001 µM in experiment [3] and 0.002 µM in experiment [4].
For the molecule `Clc1ccc(-c2c3c(nn2C2CCCC2)CCNCC3)cc1` [Example 181, 3-(4-Chloro-phenyl)-2-cyclopentyl-2,4,5,6,7,8-hexahydro-1,2,6-triaza-azulene], the Ki in experiment [1] was 0.011 µM; in experiment [2], 0.037 µM; in experiment [3], 0.0015 µM; in experiment [4], 0.0018 µM.
Turning to `CC(C)(C)n1nc2c(c1-c1ccc(F)cc1)CCNCC2` [Example 216, 2-tert-Butyl-3-(4-fluoro-phenyl)-2,4,5,6,7,8-hexahydro-1,2,6-triaza-azulene], the Ki in experiment [1] was 0.017 µM; in experiment [2], 0.07 µM; in experiment [3], 0.006 µM; in experiment [4], 0.02 µM.
With `c1csc(-c2c3c(nn2C2CCCC2)CCNCC3)c1` [Example 233, 2-Cyclopentyl-3-thiophen-2-yl-2,4,5,6,7,8-hexahydro-1,2,6-triaza-azulene], the Ki turned out to be 0.016 µM in experiment [1], 0.015 µM in experiment [2], 0.004 µM in experiment [3] and 0.025 µM in experiment [4].
In the case of `CC1CNCCc2c1nn(C(C)C)c2-c1ccc(F)cc1` (centres unmarked) [Example 306, 3-(4-Fluoro-phenyl)-2-isopropyl-8-methyl-2,4,5,6,7,8-hexahydro-1,2,6-triaza-azulene], the Ki is 0.039 µM in experiment [1], 0.12 µM in experiment [2], 0.001 µM in experiment [3] and 0.022 µM in experiment [4].
As to `Cc1ccc(-c2c3c(nn2C2CCCC2)CCNCC3)cc1` [Example 217, 2-Cyclopentyl-3-p-tolyl-2,4,5,6,7,8-hexahydro-1,2,6-triaza-azulene], the Ki in experiment [1] was 0.01 µM; in experiment [2], 0.025 µM; in experiment [3], 0.001 µM; in experiment [4] it was 0.00065 µM.
The corresponding values for `CC1CN(Cc2ccccc2)CCc2c1nn(C(C)C)c2-c1ccc(F)cc1` (centres unmarked) [Example 305, 6-Benzyl-3-(4-fluoro-phenyl)-2-isopropyl-8-methyl-2,4,5,6,7,8-hexahydro-1,2,6-triaza-azulene] are 2.2 µM, 0.6 µM, 0.02 µM and 0.06 µM.
Regarding `CCC(C)n1nc2c(c1-c1ccc(F)cc1)CCNCC2` (centres unmarked) [Example 299, 2-sec-Butyl-3-(4-fluoro-phenyl)-2,4,5,6,7,8-hexahydro-1,2,6-triaza-azulene], the Ki in experiment [1] stood at 0.026 µM; in experiment [2], 0.035 µM; in experiment [3] it was 0.0017 µM; in experiment [4], 0.009 µM.
Consider `Clc1ccc(-c2nn(Cc3ccncc3)c3c2CCNCC3)cc1` [Example 316, 3-(4-Chloro-phenyl)-1-pyridin-4-ylmethyl-1,4,5,6,7,8-hexahydro-1,2,6-triaza-azulene], for which the Ki in experiment [1] was 5 µM; in experiment [2] it was 0.0091 µM; in experiment [3], 0.06 µM; in experiment [4], 0.53 µM.
In the case of `N#Cc1ccc(-c2c3c(nn2C2CC2)CCNCC3)cc1` [Example 286, 4-(2-Cyclopropyl-2,4,5,6,7,8-hexahydro-1,2,6-triaza-azulen-3-yl)-benzonitrile], the Ki in experiment [1] was found to be 5 µM; in experiment [2] it was 0.335 µM; in experiment [3], 0.05 µM; in experiment [4], 0.08 µM.
In the case of `COc1ccc(-c2c3c(nn2C(C)C)CCNCC3)cc1` [Example 242, 2-Isopropyl-3-(4-methoxy-phenyl)-2,4,5,6,7,8-hexahydro-1,2,6-triaza-azulene], the Ki in experiment [1] (setting [5]) worked out at 0.045 µM; in experiment [2], 0.021 µM; in experiment [3] it was 0.008 µM; in experiment [4] it was 0.0013 µM.
As for `CCN1CCc2c(-c3ccc(Cl)cc3)nn(Cc3ccccc3)c2CC1` [Example 166, 1-Benzyl-3-(4-chloro-phenyl)-6-ethyl-1,4,5,6,7,8-hexahydro-1,2,6-triaza-azulene], the Ki in experiment [1] turned out to be 0.59 µM; in experiment [2], 0.008 µM; in experiment [3] it was 0.08 µM; in experiment [4] it was 0.56 µM.
Take `c1ccc(-c2c3c(nn2C2CCCC2)CCNCC3)cc1` [Example 180, 2-Cyclopentyl-3-phenyl-2,4,5,6,7,8-hexahydro-1,2,6-triaza-azulene]: the Ki in experiment [1] worked out at 0.012 µM; in experiment [2], 0.01 µM; in experiment [3], 0.0015 µM; in experiment [4], 0.0014 µM.
